Data set [1] deals with Quadruplex DNA. The data set is described as follows: Binding affinity to Bcl2 G-quadruplex DNA (unknown origin) assessed as hyperchromicity at 15 uM after 5 mins by UV-Visible absorbance titration method. In kind it is nucleic-acid assay.
For data set [2], the system named is Calf thymus DNA. The experiment in a line: Binding affinity to calf thymus DNA assessed as red shift at 15 uM after 5 mins by UV-Visible absorbance titration method. The format is nucleic-acid assay. The note with it: Bos taurus.
Data set [3] deals with Quadruplex DNA. The experiment in a line: Binding affinity to c-Myc G-quadruplex DNA (unknown origin) assessed as red shift at 15 uM after 5 mins by UV-Visible absorbance titration method. In kind it is nucleic-acid assay.
Data set [4] deals with Quadruplex DNA. The experiment in a line: Binding affinity to human telomeric G-quadruplex DNA assessed as red shift at 15 uM after 5 mins in presence of potassium ion by UV-Visible absorbance titration method. The format is nucleic-acid assay.
Data set [5] deals with Quadruplex DNA. The data set is described as follows: Binding affinity to human telomeric G-quadruplex DNA assessed as red shift at 15 uM after 5 mins in presence of sodium ion by UV-Visible absorbance titration method. The format is nucleic-acid assay.
In data set [6] the test system is Calf thymus DNA. The experiment in a line: Binding affinity to calf thymus DNA assessed as absorption maximum at 5 uM after 5 mins by fluorescence titration method (reference value: 405 nanometer). In kind it is nucleic-acid assay. The note with it: Bos taurus.
Data set [7] deals with Quadruplex DNA. The experiment in a line: Binding affinity to c-Myc G-quadruplex DNA (unknown origin) assessed as absorption maximum at 5 uM after 5 mins by fluorescence titration method (reference value: 405 nanometer). In kind it is nucleic-acid assay.
In data set [8] the test system is Quadruplex DNA. The data set is described as follows: Binding affinity to human telomeric G-quadruplex DNA assessed as absorption maximum at 5 uM after 5 mins in presence of potassium ion by fluorescence titration method (reference value: 405 nanometer). In kind it is nucleic-acid assay.
Data set [9] has as its system Quadruplex DNA. The data set is described as follows: Binding affinity to human telomeric G-quadruplex DNA assessed as absorption maximum at 5 uM after 5 mins in presence of sodium ion by fluorescence titration method (reference value: 405 nanometer). The format is nucleic-acid assay.
The subject of data set [10] is dsDNA. The data set is described as follows: Binding affinity to 26-mer duplex DNA (unknown origin) assessed as emission maximum at 5 uM after 5 mins by fluorescence titration method (reference value: 559 nanometer). The format is nucleic-acid assay.
In data set [11] the test system is Quadruplex DNA. The experiment in a line: Binding affinity to human telomeric G-quadruplex DNA assessed as emission maximum at 5 uM after 5 mins in presence of sodium ion by fluorescence titration method (reference value: 559 nanometer). The format is nucleic-acid assay.
The subject of data set [12] is Quadruplex DNA. The experiment in a line: Binding affinity to Bcl2 G-quadruplex DNA (unknown origin) assessed as compound fluorescence life time at 5 uM after 5 mins by fluorescence titration method (reference value: 3.626 nanoseconds). The format is nucleic-acid assay.
Data set [13] has as its system Quadruplex DNA. The data set is described as follows: Binding affinity to human telomeric G-quadruplex DNA assessed as compound fluorescence life time at 5 uM after 5 mins in presence of sodium ion by fluorescence titration method (reference value: 3.626 nanoseconds). The format is nucleic-acid assay.
The nature of data set [14]: Selectivity ratio of DC50 for 26-mer duplex DNA (unknown origin) to DC50 for human telomeric G-quadruplex DNA in presence of sodium ion.
Data set [15] has as its system Quadruplex DNA. The data set is described as follows: Binding affinity to human telomeric G-quadruplex DNA assessed as enhanced fluorescence time at 5 uM after 5 mins in presence of potassium ion by fluorescence titration assay relative to control. In kind it is nucleic-acid assay.
Data set [16] has as its system Quadruplex DNA. The experiment in a line: Binding affinity to human telomeric G-quadruplex DNA assessed as enhanced fluorescence ratio at 5 uM after 5 mins in presence of sodium ion by fluorescence titration assay relative to control. The format is nucleic-acid assay.
Data set [17] is described as follows: Drug uptake in human HepG2 cell cytoplasm at 10 uM after 2.5 hrs by confocal microscopic method. The note with it: hepg2, 2.5 h. In kind it is ADME, subcellular.
Data set [18] in a line: Drug uptake in human HepG2 cell nucleus at 10 uM after 2.5 hrs by confocal microscopic method. In kind it is ADME, subcellular. The note with it: hepg2, 2.5 h.
A short description of data set [19]: Drug uptake in RNase-A treated human HepG2 cell nucleus at 10 uM after 2.5 hrs by confocal microscopic method. In kind it is ADME, subcellular. As to conditions: hepg2, 2.5 h.
Data set [20] in a line: Drug uptake in RNase-A treated human HepG2 cell cytoplasm at 10 uM after 2.5 hrs by confocal microscopic method. In kind it is ADME, subcellular. The note with it: hepg2, 2.5 h.
In data set [21] the test system is Calf thymus DNA. The experiment in a line: Binding affinity to calf thymus DNA assessed as hyperchromicity at 10 uM after 5 mins by UV-Visible absorbance titration method. The format is nucleic-acid assay. As to conditions: Bos taurus.
In data set [22] the test system is Quadruplex DNA. The experiment in a line: Binding affinity to c-Kit G-quadruplex DNA (unknown origin) assessed as hyperchromicity at 10 uM after 5 mins by UV-Visible absorbance titration method. The format is nucleic-acid assay.
Data set [23] relates to Quadruplex DNA. The experiment in a line: Binding affinity to c-Myc G-quadruplex DNA (unknown origin) assessed as hyperchromicity at 10 uM after 5 mins by UV-Visible absorbance titration method. In kind it is nucleic-acid assay.
Data set [24] has as its system Quadruplex DNA. The data set is described as follows: Binding affinity to human telomeric G-quadruplex DNA assessed as hyperchromicity at 10 uM after 5 mins in presence of potassium ion by UV-Visible absorbance titration method. The format is nucleic-acid assay.
The test system of data set [25] is Calf thymus DNA. The experiment in a line: Binding affinity to calf thymus DNA assessed as red shift at 10 uM after 5 mins by UV-Visible absorbance titration method. As to conditions: Bos taurus. The format is nucleic-acid assay.
The test system of data set [26] is dsDNA. The data set is described as follows: Binding affinity to 26-mer duplex DNA (unknown origin) assessed as red shift at 10 uM after 5 mins by UV-Visible absorbance titration method. In kind it is nucleic-acid assay.
Data set [27] concerns Quadruplex DNA. The experiment in a line: Binding affinity to c-Kit G-quadruplex DNA (unknown origin) assessed as red shift at 10 uM after 5 mins by UV-Visible absorbance titration method. The format is nucleic-acid assay.
Data set [28] relates to Quadruplex DNA. The experiment in a line: Binding affinity to Bcl2 G-quadruplex DNA (unknown origin) assessed as red shift at 10 uM after 5 mins by UV-Visible absorbance titration method. In kind it is nucleic-acid assay.
The test system of data set [29] is Quadruplex DNA. The data set is described as follows: Binding affinity to human telomeric G-quadruplex DNA assessed as red shift at 10 uM after 5 mins in presence of potassium ion by UV-Visible absorbance titration method. The format is nucleic-acid assay.
For data set [30], the system named is dsDNA. The data set is described as follows: Binding affinity to 26-mer duplex DNA (unknown origin) assessed as absorption maximum at 5 uM after 5 mins by fluorescence titration method (reference value: 453 nanometer). In kind it is nucleic-acid assay.
In data set [31] the test system is Quadruplex DNA. The experiment in a line: Binding affinity to c-Kit G-quadruplex DNA (unknown origin) assessed as absorption maximum at 5 uM after 5 mins by fluorescence titration method (reference value: 453 nanometer). In kind it is nucleic-acid assay.
Data set [32] has as its system Quadruplex DNA. The data set is described as follows: Binding affinity to c-Myc G-quadruplex DNA (unknown origin) assessed as absorption maximum at 5 uM after 5 mins by fluorescence titration method (reference value: 453 nanometer). In kind it is nucleic-acid assay.
Data set [33] relates to Quadruplex DNA. The data set is described as follows: Binding affinity to human telomeric G-quadruplex DNA assessed as absorption maximum at 5 uM after 5 mins in presence of sodium ion by fluorescence titration method (reference value: 453 nanometer). The format is nucleic-acid assay.
The subject of data set [34] is Quadruplex DNA. The experiment in a line: Binding affinity to c-Kit G-quadruplex DNA (unknown origin) assessed as emission maximum at 5 uM after 5 mins by fluorescence titration method (reference value: 584 nanometer). In kind it is nucleic-acid assay.
Data set [35] deals with Quadruplex DNA. The experiment in a line: Binding affinity to Bcl2 G-quadruplex DNA (unknown origin) assessed as emission maximum at 5 uM after 5 mins by fluorescence titration method (reference value: 584 nanometer). The format is nucleic-acid assay.
The test system of data set [36] is Quadruplex DNA. The data set is described as follows: Binding affinity to human telomeric G-quadruplex DNA assessed as emission maximum at 5 uM after 5 mins in presence of potassium ion by fluorescence titration method (reference value: 584 nanometer). The format is nucleic-acid assay.
Data set [37] has as its system HepG2. The data set is described as follows: Induction of morphological changes in human HepG2 cells assessed as debris formation at 5 uM after 24 hrs. The format is functional, cell-based.
The nature of data set [38]: Drug uptake in human HepG2 cell nucleus at 3 uM after 30 mins by H33258.staining based confocal microscopic method. The format is ADME, subcellular. As to conditions: hepg2, 0.5 h.
A short description of data set [39]: Drug uptake in DNase-1 treated human HepG2 cell nucleus at 3 uM after 30 mins by H33258.staining based confocal microscopic method. The format is ADME, subcellular. As to conditions: hepg2, 0.5 h.
Data set [40] can be described thus: Drug uptake in RNase-A treated human HepG2 cell nucleus at 3 uM after 30 mins by H33258.staining based confocal microscopic method. The format is ADME, subcellular. The note with it: hepg2, 0.5 h.

The source made the active and inactive calls. The rule behind the calls is not given here. Bounds are passed on as bounds.

For `CCn1c2ccccc2c2cc(/C=C(\C#N)c3ccc[n+](C)c3)ccc21.[I-]`, the Activity in data set [1] worked out at 42.7%; in data set [2], 23 nm; in data set [3], 25 nm; in data set [4], 23 nm; in [5], 17 nm; in data set [6] it was 428 nm. Further, the Activity in [7] came to 430 nm; in data set [8] it was 428 nm; in data set [9] it was 422 nm; in [10] it was 541 nm; in data set [11] it was 545 nm. The results for the Time in data set [12] and in data set [13] were 6.55 nanoseconds and 7.25 nanoseconds, respectively. Also, the Selectivity ratio in [14] is 1.33. For the same compound, the fold change (FC) in data set [15] was in the range of 11.2 to 20.6. For the same compound, the Ratio in data set [16] was above 6. The Drug uptake result is “Active” in [17], “Not Active” in data set [18], “Active” in data set [19] and “Not Active” in [20].
On to `CCn1c2ccccc2c2cc(/C=C/c3sc4ccccc4[n+]3CC)ccc21.[I-]`, for which the Activity in data set [21] amounted to 40.1%; in [22], 55.1%; in data set [23] it was 55.6%; in data set [24] it was 41.1%; in data set [25], 24 nm; in data set [26], 17 nm. The Activity in [27] came out at 40 nm; in [28], 47 nm; in [29] it was 21 nm; in [30], 470 nm; in [31] it was 493 nm; in data set [32], 506 nm. Moreover, the Activity in data set [33] turned out to be 477 nm; in [34] it was 588 nm; in data set [35] it was 586 nm; in [36], 579 nm. Also, the result in [37] was Active. Also, the values for the Drug uptake result in [38], in data set [39] and in data set [40] were “Active”, “Not Active” and “Active”, respectively.
